Series [1] addresses partially purified or recombinant PDE4. The experiment in a line: Inhibition of phosphodiesterase 4 in vitro. It is filed as biochemical.
For series [2], the target named is partially purified or recombinant PDE5 (Homo sapiens, UniProt O76074). As to the kind of experiment: Inhibition of phosphodiesterase 5 in vitro. It is filed as biochemical.
Series [3] deals with isolated guinea pig Langendorff hearts. The experiment in a line: Isolated guinea pig Langendorff heart.
A short description of series [4]: Diclofenac induced blood loss in mice (fecal hemoglobin). Format: in vivo. Particulars: male, NMRI, mouse, feces, oral; mice, 3-100 mg/kg p.o., spectrophotometric determination of fecal hemoglobin; read-out: ED50 of induced gastrointestinal bleeding. On the procedure:
(§1) Male NMRI mice (Charles River Laboratories, Sulzfeld, Germany) weighting 23-25 g were housed in groups of 5 under standard conditions at a temperature of 22° C.+/−2° C. and a 12 h light-dark cycle. If not otherwise stated animals had free access to tap water and standard food pellets. Diclofenac was administrated at doses from 1-100 mg/kg p.o.; rolipram, roflumliast and RP73401 were given at doses from 1-100 mg/kg p.o. Preventive treatment: Diclofenac was given at time point 0 h. At time points −24, −16, 0 h, +7 h one of the selective PDE4 inhibitors was administered. Curative treatment: Diclofenac was given at time point 0 h. At time points +1 h and +7 h one of the selective PDE4 inhibitors was administered. The drugs used were dissolved in 4% aqueous methyl cellulose. The animals were food reduced 24 h prior diclofenac administration. For each experiment 5 animals were used for one experimental point. Following 24 h administration of drugs animals were weighted and stool was collected quantitatively and homogenized as described below:
(§2) The modified method of Welch (Clin. Chem. 29/12, 2022-2025, 1983) was used. The amount of hemoglobin was determined by the heme catalyzed oxidation of tolidine in the presence of hydrogen peroxide. Feces was homogenized in destined water in a concentration with 1 g feces/6.6 ml H20 with an ultra-turrax (IKA-Werke, Germany). 500 μl aliquots from two different areas of the stool were taken to minimize error due to inhomogenous distribution of blood in the feces and heated 10 min at 95° C. to inactivate peroxidases and than diluted with 500 μl of acetic acid/H20 (30/70 vol/vol). Hemoglobin was extracted in 2.5 ml of acetic acid/H20 (30/70 vol/vol) by the addition of 4.5 ml ethyl acetate. The sample was rigorously shacked and the supernatant was used following a centrifugation step for optical detection of hemoglobin. Tolidine was prepared freshly from a stock solution (0.4 g tolidine in 10 ml ethanol) by mixing equal volumes of stock solution, H20 and acetic acid and equilibrated at room temperature. 20 μl of extracted supernatant was diluted to 100 μl ethyl acetate in a 96er crystal plate and incubated with 50 μl of the working solution. The reaction was initiated by the injection of 25 μl hydrogen peroxide (6%) in a Wallac Victor spectro-photometer (Turku, Finnland). The increase of OD 690 was monitored by a kinetic analysis and expressed as ΔOD690/min.

In series [5] the test system is Male NMRI mice. The experiment in a line: Indomethacin induced blood loss in mice (fecal hemoglobin). Format: in vivo. The note with it: NSAID 30 mg/kg indomethacin; PDE4 inhibitor 100 mg/kg p.o., curative. How it is done: as §1, with “Diclofenac was administrated at doses from 1-100 mg/kg p.o.; rolipram, roflumliast and RP73401 were given at doses from 1-100 mg/kg p.o. Preventive treatment: Diclofenac was given at time point 0 h.” left out, “Curative treatment: Diclofenac was given at time point 0 h.” left out
The modified method of Welch (Clin. Chem. 29/12, 2022-2025, 1983) was used. The amount of hemoglobin was determined by the heme catalyzed oxidation of tolidine in the presence of hydrogen peroxide. Feces was homogenized in destined water in a concentration with 1 g feces/6.6 ml H20 with an ultra-turrax (IKA-Werke, Germany). […] The increase of OD 690 was monitored by a kinetic analysis and expressed as ΔOD690/min.

In series [6] the test system is Male NMRI mice. The experiment in a line: Diclofenac induced blood loss in mice (fecal hemoglobin). Format: in vivo. The note with it: for % reduction of ΔOD690/min: NSAID 100 mg/kg diclofenac. On the procedure: as §1, §2

Consider `CC(=O)Oc1ccccc1C(=O)O` [ASS, 2-(acetyloxy)benzoic acid], for which, in series [1], the IC50 (in general, the concentration that inhibits the measured activity by half) was over 100 µM and the “PDE4 activity (in words)” value was “only minor effects”. In series [2], the “IC50 PDE5” value is over 100 µM and the “PDE5 activity (in words)” value was “only minor effects”.

As for `CS(=O)(=O)Nc1cc2c(cc1Oc1ccc(F)cc1F)C(=O)CC2` [CGP28238, 6-(2,4-difluorophenoxy)-5-methylsulfonylamino-1-indanone], in series [1], the IC50 is 23 µM and the “PDE4 activity (in words)” value is “in the μM range”. Also, in series [2], the “IC50 PDE5” value turned out to be 14 µM and the “PDE5 activity (in words)” value is on record as “in the μM range”.

Regarding `Cc1ccc(-c2cc(C(F)(F)F)nn2-c2ccc(S(N)(=O)=O)cc2)cc1` [Celecoxib, 4-[5-(4-methylphenyl)-3-(tri-fluoromethyl)-1H-pyrazol-1-yl]benzenesulfonamide], in series [1], the IC50 was 6 µM and the “PDE4 activity (in words)” value was “in the μM range”. Besides, in series [3], the heart rate entry was “no effect” and the left ventricular pressure entry is recorded as “no effect”. Moreover, the coronary heart flow result in series [3] (doses consistent with inhibitory potency on PDE4 and 5) is listed as “selectively increased”. In series [2], the “PDE5 activity (in words)” value is on record as “in the μM range”.

Consider `O=C(O)Cc1ccccc1Nc1c(Cl)cccc1Cl` [Diclofenac, 2-[(2,6-dichlorophenyl)amino]benzeneacetic acid], for which, in series [1], the 50% inhibitory concentration (IC50) is over 100 µM and the “PDE4 activity (in words)” value is listed as “only minor effects”. Also, in series [2], the “IC50 PDE5” value was over 100 µM and the “PDE5 activity (in words)” value is on record as “only minor effects”. Besides, in series [4], the ED50 (usually the dose at which the effect has come halfway, by size or by number of responders) at 24 h amounted to 56 mg/kg.

Consider `COc1ccc2c(c1)c(CC(=O)O)c(C)n2C(=O)c1ccc(Cl)cc1` [Indometacin, 1-(4-chlorobenzoyl)-5-methoxy-2-methyl-1H-indole-3-acetic acid], for which, in series [1], the IC50 is about 100 µM and the “PDE4 activity (in words)” value is “only minor effects”. In series [2], the “IC50 PDE5” value was 62 µM and the “PDE5 activity (in words)” value is “only minor effects”.

Consider `CS(=O)(=O)Nc1cc2c(cc1Sc1ccc(F)cc1F)C(=O)CC2` [L-745337, 5-methanesulfonamido-6-(2,4-difluorophenylthio)-1-indanone], for which, in series [1], the IC50 worked out at 31 µM and the “PDE4 activity (in words)” value was “in the μM range”. Besides, in series [2], the “IC50 PDE5” value is 24 µM and the “PDE5 activity (in words)” value is “in the μM range”.

For the molecule `CS(=O)(=O)Nc1ccc([N+](=O)[O-])cc1Oc1ccccc1` [Nimesulide, 4′-nitro-2′-phenoxymethansulfonamide], in series [1], the half-maximal inhibitory concentration (IC50) is 58 µM and the “PDE4 activity (in words)” value is “in the μM range”. In series [2], the “IC50 PDE5” value was 25 µM and the “PDE5 activity (in words)” value is on record as “in the μM range”.

On to `COc1ccc(C(=O)Nc2c(Cl)cncc2Cl)cc1OC1CCCC1` [RP73401], for which the “% reduction of ΔOD690/min” value in series [5] was found to be 96%.

For the molecule `O=C(Nc1c(Cl)cncc1Cl)c1ccc(OC(F)F)c(OCC2CC2)c1` [Roflumilast, 3-Cyclopropylmethoxy-4-difluoromethoxy-N-(3,5-dichloropyrid-4-yl)-benzamide], the “% reduction of ΔOD690/min” value in series [6] (PDE4 inhibitor 3 mg/kg p.o., curative) was 95%; in series [6] (PDE4 inhibitor 10 mg/kg p.o., preventive) it was 95%.

On to `COc1ccc(C2CNC(=O)C2)cc1OC1CCCC1` (centres unmarked) [Rolipram], for which the “% reduction of ΔOD690/min” value stood at 82% in series [6] (PDE4 inhibitor 10 mg/kg p.o., curative); 90% in series [6] (PDE4 inhibitor 30 mg/kg p.o., preventive); 65% in series [5].

For `CCCc1nn(C)c2c(=O)[nH]c(-c3cc(S(=O)(=O)N4CCN(C)CC4)ccc3OCC)nc12` [sildenafil], the “protection from NSAID-induced blood loss” value in series [6] (diclofenac 10-100 mg/kg p.o. t=0 h, sildenafil 3-100 mg/kg p.o. t=-48 h to +7 h) is on record as “no protection”.

(Values after patent publication US8242146B2, “Combination of a NSAID and a PDE-4 inhibitor” (Nycomed GmbH, priority 2002, dated 2012).)
